In patent US4028351A, “Method for the preparation of derivatives of spiro (4,5)-decane and derivatives thus obtained” (Buskine S.A., priority 1971, dated 1977):

Key:
kaolin induced oedema = assay: Kaolin induced oedema (rat), anti-inflammatory activity; format: in vivo, Wistar rat
Description: b) the data of anti-inflammatory activity are expressed as the volume
variation of the kaolin induced oedema in the Wistar rat;

[1] = Heated plate test (mouse), analgesic activity; format: in vivo
Description: a) the data of analgesic activity are expressed as the variation % of the
stimulation threshold in the mouse;

Serotonine broncho-spasm = assay: Broncho-spasm antagonist activity (Konzett and Roessler technique), serotonine; format: in vivo, guinea pigs; conditions: Cavia porcellus, iv, guinea pig, i.v., read-out: Broncho-spasm 50% approx. inhibiting dose, Serotonine
Procedure: (§1) c) the experiments on the antagonist activity against the bronochospasm
(§2) were carried out on guinea pigs, according to the technique taught by
(§3) Konzett and Roessler (Arch. Exper. Pathol. Pharm., 71, (1940), 195).

LD50 (rat) i.p. = conditions: in vivo, ip
Histamine broncho-spasm = assay: Broncho-spasm antagonist activity (Konzett and Roessler technique), histamine; format: in vivo, guinea pigs; conditions: Cavia porcellus, iv, guinea pig, i.v., read-out: Broncho-spasm 50% approx. inhibiting dose, Histamine
Procedure: as §1, §2, §3

[2] = system: Acetylcholine broncho-spasm; assay: Broncho-spasm antagonist activity (Konzett and Roessler technique), acetylcholine; format: in vivo, guinea pigs; conditions: Cavia porcellus, iv, guinea pig, i.v., read-out: Broncho-spasm 50% approx. inhibiting dose, Acetylcholine
Procedure: as §1, §2, §3

[3] = total dose 310 mg/kg per os (48 hours)
[4] = total dose 440 mg/kg per os (48 hours)

SMILES: O=C1NCC2(CCN(CCc3ccc4c(c3)OCO4)CC2)O1
- Kaolin induced oedema, volume variation % (kaolin induced oedema; [3]): 39.5%
- Heated plate test, % increase of threshold value ([1]; 40 mg/kg i.p.): 80%
- ED50 (Serotonine broncho-spasm): > 2.5 mg/kg
- LD50 (LD50 (rat) i.p.): 235 mg/kg
- ED50 (Histamine broncho-spasm): 0.2 mg/kg
- ED50 [2]: > 2.5 mg/kg

SMILES: O=C1NCC2(CCN(CCc3ccc(F)cc3)CC2)O1
- Kaolin induced oedema, volume variation % (kaolin induced oedema; total dose 70 mg/kg per os (48 hours)): 19.4%
- Heated plate test, % increase of threshold value ([1]; 10 mg/kg i.p.): 41.7%
- ED50 (Serotonine broncho-spasm): 0.5 mg/kg
- LD50 (LD50 (rat) i.p.): 282 mg/kg
- ED50 (Histamine broncho-spasm): 0.2 mg/kg
- ED50 [2]: 2 mg/kg

SMILES: O=C1NCC2(CCN(CCOc3ccccc3)CC2)O1
- Kaolin induced oedema, volume variation % (kaolin induced oedema; [4]): 26.3%
- Heated plate test, % increase of threshold value ([1]; 100 mg/kg i.p.): 49%
- ED50 (Serotonine broncho-spasm): > 0.5 mg/kg
- LD50 (LD50 (rat) i.p.): 344 mg/kg
- ED50 (Histamine broncho-spasm): > 0.5 mg/kg
- ED50 [2]: > 0.5 mg/kg

SMILES: O=C1NCC2(CCN(C(c3ccccc3)c3ccccc3)CC2)O1
- Kaolin induced oedema, volume variation % (kaolin induced oedema; [4]): 4.6%
- Heated plate test, % increase of threshold value ([1]; 100 mg/kg i.p.): 119%
- ED50 (Serotonine broncho-spasm): > 0.5 mg/kg
- LD50 (LD50 (rat) i.p.): 346 mg/kg
- ED50 (Histamine broncho-spasm): > 0.5 mg/kg
- ED50 [2]: > 0.5 mg/kg

SMILES: O=C1NCC2(CCN(CCc3cccc(C(F)(F)F)c3)CC2)O1
- Kaolin induced oedema, volume variation % (kaolin induced oedema; [3]): 10%
- Heated plate test, % increase of threshold value ([1]; 50 mg/kg i.p.): 45.6%
- ED50 (Serotonine broncho-spasm): > 0.5 mg/kg
- LD50 (LD50 (rat) i.p.): 344 mg/kg
- ED50 (Histamine broncho-spasm): 0.5 mg/kg
- ED50 [2]: > 0.5 mg/kg

SMILES: O=C1NCC2(CCN(Cc3ccccc3)CC2)O1
- Kaolin induced oedema, volume variation % (kaolin induced oedema; total dose 340 mg/kg per os (48 hours)): 9.4%
- Heated plate test, % increase of threshold value ([1]; 100 mg/kg i.p.): 93%
- ED50 (Serotonine broncho-spasm): > 0.5 mg/kg
- LD50 (LD50 (rat) i.p.): 319 mg/kg
- ED50 (Histamine broncho-spasm): > 0.5 mg/kg
- ED50 [2]: > 0.5 mg/kg

SMILES: O=C1NCC2(CCN(CCc3ccccc3)CC2)O1
- Kaolin induced oedema, volume variation % (kaolin induced oedema; total dose 190 mg/kg per os (48 hours)): 16.1%
- Heated plate test, % increase of threshold value ([1]; 25 mg/kg i.p.): 63.4%
- ED50 (Serotonine broncho-spasm): 0.2 mg/kg
- LD50 (LD50 (rat) i.p.): 230 mg/kg
- ED50 (Histamine broncho-spasm): 0.5 mg/kg
- ED50 [2]: 2 mg/kg
